Measured values as given in ChEMBL document CHEMBL2028040, “Malaria Box”.

Columns and labels:
Plasmodium falciparum [1] = test: MMV: Inhibition of Plasmodium falciparum 3D7 at 5uM compound concentration.; assay type: functional
[2] = tested on: Trypanosoma brucei brucei; test: MMV: Inhibition of Trypanosoma brucei brucei (Squib 427) (HAT in vitro).; assay type: functional, organism-based
Plasmodium falciparum [3] = test: MMV: Inhibition of Plasmodium falciparum 3D7 (EC50).; assay type: functional, organism-based
Trypanosoma cruzi = test: MMV: Inhibition of Trypanosoma cruzi (Tulahuen C4 LacZ) (Chagas in vitro).; assay type: functional, organism-based
Plasmodium falciparum [4] = test: MMV: Inhibition of Plasmodium falciparum K1 (EC50).; assay type: functional, organism-based
[5] = tested on: Trypanosoma brucei rhodesiense; test: MMV: Inhibition of Trypanosoma brucei rhodesiense (STIB 900) (HAT in vitro).; assay type: functional, organism-based
[6] = MMV: Cytotoxicity against human fibroblasts (MRC-5) cells.; settings: MRC-5 cells (human fibroblasts)
Leishmania infantum = test: MMV: Inhibition of Leishmania infantum (MHOM/MA/BE/67) in vitro.; assay type: functional, organism-based

| SMILES | inhibition at 5 µM (Plasmodium falciparum [1]) [%] | IC50 [2] [µM] | EC50 (Plasmodium falciparum [3]) [µM] | IC50 (Trypanosoma cruzi) [µM] | EC50 (Plasmodium falciparum [4]) [µM] | IC50 [5] [µM] | IC50 [6] [µM] | IC50 (Leishmania infantum) [µM] |
| --- | --- | --- | --- | --- | --- | --- | --- | --- |
| COc1ccccc1N1C(=N)SC(=Cc2ccc(OCc3ccccc3F)cc2)C1=O | 95 | 10 | 0.478 | 16.3 | 0.824 | 4.12 | > 32 | 25.4 |
| CCOC(=O)c1c(NC(=O)c2ccccc2)sc2c(O)c(CN(CC)CC)ccc12 | 96 | > 32 | 0.205 | > 32 | 0.114 | > 32 | > 32 | 16.2 |
| COc1cc2c3cc1Oc1c(OC)c(OC)cc4c1C(Cc1ccc(O)c(c1)Oc1ccc(cc1)CC3N(C)CC2)N(C)CC4 (stereo not given) | 96 | 14.5 | 1.27 | 3.67 | 1.19 | 4.59 | 4.42 | 12 |
| c1ccc2cc3c(Nc4ccc(N5CCOCC5)cc4)ccnc3cc2c1 | 97 | 0.332 | 0.251 | 1.29 | 0.516 | 0.346 | > 32 | > 32 |
| CCOc1cc2c(cc1OCC)C(c1cc(C)c(O)c(C)c1)NCC2 (stereo not given) | 97 | 12.9 | 0.683 | > 32 | 0.168 | 4.06 | > 32 | 17.3 |
| CCCCOC(=O)c1ccc(Nc2cc(C)nc3ccc(OC)cc23)cc1 | 99 | 3.94 | 0.584 | 3.67 | 2.14 | 3.51 | 14.3 | 4.76 |
| CCC(c1ccccc1)c1nn2c(-c3cccs3)nnc2s1 (stereo not given) | 99 | 16.1 | 0.259 | 4.09 | 0.916 | 13.1 | > 32 | 12 |
| CCCCCC(=O)N1c2ccccc2N=C2CC(c3ccc(OC)c(OC)c3)CC(O)=C2C1c1ccc(C(F)(F)F)cc1 (stereo not given) | 100 | 4.06 | 0.237 | 12.1 | 0.288 | 1.69 | > 32 | 25.4 |
| Cc1ccc(-c2cc3c(nn2)-c2ccccc2C3=O)cc1 | 99 | > 32 | 0.0944 | > 32 | 0.165 | 15 | > 32 | > 32 |
| O=C(Nc1ccc(N2CCCCC2)c(Cl)c1)c1ccc(Br)o1 | 96 | 15.1 | 0.735 | 14.9 | 1.45 | 13.6 | 26.8 | > 32 |
| O=C(CCc1ccccc1)c1ccccc1OCC(O)CN1CCCCC1 (stereo not given) | 97 | 16.1 | 0.676 | 16.9 | 0.182 | 4.7 | > 32 | 17.3 |
| O=C(NC1CCN(Cc2ccccc2)CC1)c1cc(C(=O)NC2CCN(Cc3ccccc3)CC2)cc(C(=O)NC2CCN(Cc3ccccc3)CC2)c1 | 98 | 4.06 | 0.646 | 25.1 | 0.928 | 2.84 | > 32 | 4.06 |
| CC(C)c1ccc(CNCC(O)c2ccccc2)cc1 (stereo not given) | 96 | 1 | 1.26 | 10.6 | 0.456 | 1.01 | 13 | 10.2 |
| Cc1ccnc(NC(c2cccc(OCc3ccccc3)c2)c2ccc3cccnc3c2O)c1 (stereo not given) | 97 | 1.2 | 1.02 | 1.05 | 1.02 | 1 | 2 | 4.06 |
| O=C(Nc1ccc(C23CC4CC(CC(c5ccccc5)(C4)C2)C3)cc1)c1cccs1 | 96 | > 32 | 0.826 | > 32 | 1.27 | > 32 | > 32 | > 32 |
| OC1=C2C(=Nc3ccccc3SC2c2ccc(Br)cc2)c2ccccc21 (stereo not given) | 97 | 4.09 | 0.567 | 3.62 | 0.961 | 2.66 | > 32 | 4.32 |
| CCc1ccc(Nc2cc(C)c3ccc(O)cc3n2)cc1 | 98 | 12.2 | 0.194 | 3.72 | 0.0161 | 11.9 | 7.77 | 4.32 |
| CC1CCN(Cc2ccc(NC(=O)c3cc4ccc5cccnc5c4[nH]3)cc2)CC1 | 97 | 1.41 | 0.274 | 2.2 | 0.773 | 0.861 | 1.45 | 3.01 |

| SMILES | inhibition at 5 µM (Plasmodium falciparum [1]) [%] | IC50 [2] [µM] | EC50 (Plasmodium falciparum [3]) [µM] | IC50 (Trypanosoma cruzi) [µM] | EC50 (Plasmodium falciparum [4]) [µM] | IC50 [5] [µM] | IC50 [6] [µM] | IC50 (Leishmania infantum) [µM] |
| --- | --- | --- | --- | --- | --- | --- | --- | --- |
| OC(CNC1CCCCC1)Cn1c2ccccc2c2ccccc21 (stereo not given) | 93 | 4.15 | 0.293 | > 32 | 1.17 | 4.03 | > 32 | 16.6 |
| Cc1ccc(N2C(=O)C3C(C2=O)C2(c4ccccc4)C(=O)C3(c3ccccc3)C(c3ccccc3)=C2c2ccccc2)cc1 (stereo not given) | 98 | > 32 | 0.282 | > 32 | 0.396 | > 32 | > 32 | > 32 |
| CCOc1cc2c(cc1OCC)C(c1cc(OC)c(O)cc1Cl)NCC2 (stereo not given) | 98 | 15.2 | 0.37 | 14.6 | 0.114 | 16.2 | > 32 | > 32 |
| OC(CNCc1ccccc1)Cn1c2ccccc2c2ccccc21 (stereo not given) | 95 | 0.851 | 1.08 | 4.32 | 0.86 | 0.252 | 16.1 | 4 |
| Oc1ccccc1CN1CCC2(CCCN(Cc3ccccc3F)C2)C1 (stereo not given) | 98 | 14.8 | 0.548 | 14 | 0.268 | 15.8 | > 32 | 16 |
| Oc1ccc(-c2nc(-c3ccc4oc5ccc(-c6[nH]c(-c7ccc(O)cc7)nc6-c6ccccc6)cc5c4c3)c(-c3ccccc3)[nH]2)cc1 | 98 | 3.38 | 0.326 | 4.91 | 0.285 | 2.75 | 15.2 | 4 |
| COc1ccc(CN2CCN(Cc3ccccc3)CC2)c(O)c1 | 96 | > 32 | 1.08 | > 32 | 0.789 | > 32 | > 32 | > 32 |
| CN1CCN(c2ccc(Nc3c4ccccc4nc4ccccc34)cc2)CC1 | 97 | 1.03 | 0.142 | 1 | 0.487 | 0.311 | 10.9 | 4.06 |
| CCOc1ccc2c(c1)CN(Cc1ccc(Cl)cc1)CO2 | 97 | 7 | 0.439 | > 32 | 0.184 | 11 | > 32 | > 32 |
| OC(CNC1CCCCC1)Cn1c2ccc(I)cc2c2cc(I)ccc21 (stereo not given) | 97 | 0.877 | 0.466 | 0.902 | 0.298 | 0.784 | 4.03 | 1.59 |
| Cc1cccc(N2C(=O)C3C(C2=O)C2(c4ccccc4)C(=O)C3(c3ccccc3)C(c3ccc4c(c3)OCO4)=C2c2ccc3c(c2)OCO3)c1 (stereo not given) | 94 | > 32 | 0.304 | > 32 | 0.261 | > 32 | > 32 | > 32 |
| Cc1c(C)n(CC(O)CNC2CCCCC2C)c2ccccc12 (stereo not given) | 96 | 3.84 | 0.769 | > 32 | 0.438 | 1.01 | > 32 | > 32 |
| COc1cccc(O)c1CN1CCC2(CCCN(Cc3ccc(F)cc3)C2)C1 (stereo not given) | 95 | 4.23 | 0.53 | 12.3 | 0.375 | 1.85 | > 32 | 10.1 |
| CCCCCCc1cc2cc(-c3csc(C=Cc4ccccc4)n3)c(=O)oc2cc1O | 92 | 13.6 | 0.387 | 19.1 | 0.143 | 8.87 | > 32 | > 32 |
| CCOC(=O)C1=C(c2ccccc2)N=c2sc(=Cc3cc(C)n(-c4ccc(F)cc4)c3C)c(=O)n2C1c1cccc(OC)c1OC (stereo not given) | 94 | > 32 | 0.154 | > 32 | 0.344 | 13.3 | > 32 | > 32 |
| COc1ccc(C2C(C(=O)Nc3cccc(OC)c3)c3ccccc3C(=O)N2C2CCCCC2)cc1 (stereo not given) | 97 | 4.06 | 1.18 | 15.6 | 1.6 | 3.7 | > 32 | 6.35 |
| COc1ccc(Br)cc1C1Nc2ccc3ccccc3c2C2=C1C(=O)CC(c1ccccc1)C2 (stereo not given) | 95 | 4.06 | 0.18 | 1.12 | 0.4 | 1.06 | > 32 | > 32 |
